We go through one compound from article PMC4692446, “Compound K Production from Red Ginseng Extract by β-Glycosidase from Sulfolobus solfataricus Supplemented with α-L-Arabinofuranosidase from Caldicellulosiruptor saccharolyticus” (PLoS ONE, 2015).

The assay deals with T1, SS-bgly (β-glycosidase from Sulfolobus solfataricus) (Saccharolobus solfataricus, UniProt P22498).
T1 construct: gene lacS; full-length gene from genomic DNA in pET-24a, NdeI/BamHI, own stop codon, no tag; E. coli ER2566; heat-treated soluble enzyme (75°C)
T1 sequence (P22498 1-489): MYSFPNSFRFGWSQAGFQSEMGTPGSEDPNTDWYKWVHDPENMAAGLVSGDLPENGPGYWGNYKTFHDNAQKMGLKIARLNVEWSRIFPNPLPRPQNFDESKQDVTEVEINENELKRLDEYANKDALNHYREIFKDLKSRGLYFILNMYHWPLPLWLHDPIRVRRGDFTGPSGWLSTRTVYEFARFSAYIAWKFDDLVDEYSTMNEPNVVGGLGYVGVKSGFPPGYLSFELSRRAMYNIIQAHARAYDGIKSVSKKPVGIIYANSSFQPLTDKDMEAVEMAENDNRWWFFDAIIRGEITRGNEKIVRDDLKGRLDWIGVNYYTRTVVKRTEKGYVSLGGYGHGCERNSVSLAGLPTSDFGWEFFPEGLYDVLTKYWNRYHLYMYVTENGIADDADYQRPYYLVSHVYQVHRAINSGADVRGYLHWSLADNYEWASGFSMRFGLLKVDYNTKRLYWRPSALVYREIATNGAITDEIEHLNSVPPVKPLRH
The assay can be described thus: TLC of reaction products. In kind it is biochemical. As to conditions: 80°C, pH 6.0 citrate/phosphate; SS-bgly alone; product C-Mc.

Each structure is given as a SMILES string.

Take `CC(C)=CCC[C@](C)(O[C@@H]1O[C@H](CO[C@@H]2O[C@@H](CO)[C@H](O)[C@H]2O)[C@@H](O)[C@H](O)[C@H]1O)[C@H]1CC[C@]2(C)[C@@H]1[C@H](O)C[C@@H]1[C@@]3(C)CC[C@H](O[C@@H]4O[C@H](CO)[C@@H](O)[C@H](O)[C@H]4O[C@@H]4O[C@H](CO)[C@@H](O)[C@H](O)[C@H]4O)C(C)(C)[C@@H]3CC[C@]12C` [Rc, ginsenoside Rc]: the “TLC of reaction products” value is on record as “whereas only C-Mc was obtained by SS-bgly alone”.
